In patent US20120129833A1, “CYCLIC KETOENOLS FOR THERAPY” (BAYER PHARMA AKTIENGESELLSCHAFT, priority 2010, published 2012):

Tests used:
[1] = target: T1, recombinant human ACC1 (acetyl-CoA carboxylase 1) (Homo sapiens, UniProt Q13085); experiment: Human ACC1 enzyme assay (HTRF ADP detection); type: biochemical; conditions: 50 μM ATP, 20 μM acetyl-CoA, 15 min pre-incubation, 20 min at 22° C.; read-out: ACC 1 IC50;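 note: ADP by-product quantified by competitive HTRF immunoassay with europium cryptate anti-ADP antibody and d2-labelled ADP, read after 1 h binding at 22 °C, enzyme near 2.5 ng/µl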
T1 construct: NM_198834, amino acids 39—end; FLAG (C); made in house; host or cells: baculovirus-transfected insect cells (Hi5)
Experimental: The basic principle of the assay is the measurement of adenosine diphosphate (ADP), which is formed as a by-product, by means of an HTRF®-based competitive immunoassay (HTRF=Homogeneous Time Resolved Fluorescence).
(§1) The amount of complex of d2-labelled ADP and europium cryptate-labelled anti-ADP antibody was then determined by measuring the resonance energy transfer of europium cryptate to d2.

[2] = target: T2, ACC2 (acetyl-CoA carboxylase 2) (Homo sapiens, UniProt O00763); experiment: Human ACC2 enzyme assay (HTRF ADP detection); type: biochemical; conditions: 20 μM acetyl-CoA, 15 min pre-incubation, 20 min at 22° C.; read-out: ACC 2 IC50
T2 construct: catalogue no; 50201, amino acids 39—end, expressed in baculovirus-transfected Sf9 insect cells; His (C); purchased BPS Bioscience (San Diego, Calif.) 50201; host or cells: baculovirus-transfected Sf9 insect cells
T2 sequence (O00763 39-2458 limits assumed): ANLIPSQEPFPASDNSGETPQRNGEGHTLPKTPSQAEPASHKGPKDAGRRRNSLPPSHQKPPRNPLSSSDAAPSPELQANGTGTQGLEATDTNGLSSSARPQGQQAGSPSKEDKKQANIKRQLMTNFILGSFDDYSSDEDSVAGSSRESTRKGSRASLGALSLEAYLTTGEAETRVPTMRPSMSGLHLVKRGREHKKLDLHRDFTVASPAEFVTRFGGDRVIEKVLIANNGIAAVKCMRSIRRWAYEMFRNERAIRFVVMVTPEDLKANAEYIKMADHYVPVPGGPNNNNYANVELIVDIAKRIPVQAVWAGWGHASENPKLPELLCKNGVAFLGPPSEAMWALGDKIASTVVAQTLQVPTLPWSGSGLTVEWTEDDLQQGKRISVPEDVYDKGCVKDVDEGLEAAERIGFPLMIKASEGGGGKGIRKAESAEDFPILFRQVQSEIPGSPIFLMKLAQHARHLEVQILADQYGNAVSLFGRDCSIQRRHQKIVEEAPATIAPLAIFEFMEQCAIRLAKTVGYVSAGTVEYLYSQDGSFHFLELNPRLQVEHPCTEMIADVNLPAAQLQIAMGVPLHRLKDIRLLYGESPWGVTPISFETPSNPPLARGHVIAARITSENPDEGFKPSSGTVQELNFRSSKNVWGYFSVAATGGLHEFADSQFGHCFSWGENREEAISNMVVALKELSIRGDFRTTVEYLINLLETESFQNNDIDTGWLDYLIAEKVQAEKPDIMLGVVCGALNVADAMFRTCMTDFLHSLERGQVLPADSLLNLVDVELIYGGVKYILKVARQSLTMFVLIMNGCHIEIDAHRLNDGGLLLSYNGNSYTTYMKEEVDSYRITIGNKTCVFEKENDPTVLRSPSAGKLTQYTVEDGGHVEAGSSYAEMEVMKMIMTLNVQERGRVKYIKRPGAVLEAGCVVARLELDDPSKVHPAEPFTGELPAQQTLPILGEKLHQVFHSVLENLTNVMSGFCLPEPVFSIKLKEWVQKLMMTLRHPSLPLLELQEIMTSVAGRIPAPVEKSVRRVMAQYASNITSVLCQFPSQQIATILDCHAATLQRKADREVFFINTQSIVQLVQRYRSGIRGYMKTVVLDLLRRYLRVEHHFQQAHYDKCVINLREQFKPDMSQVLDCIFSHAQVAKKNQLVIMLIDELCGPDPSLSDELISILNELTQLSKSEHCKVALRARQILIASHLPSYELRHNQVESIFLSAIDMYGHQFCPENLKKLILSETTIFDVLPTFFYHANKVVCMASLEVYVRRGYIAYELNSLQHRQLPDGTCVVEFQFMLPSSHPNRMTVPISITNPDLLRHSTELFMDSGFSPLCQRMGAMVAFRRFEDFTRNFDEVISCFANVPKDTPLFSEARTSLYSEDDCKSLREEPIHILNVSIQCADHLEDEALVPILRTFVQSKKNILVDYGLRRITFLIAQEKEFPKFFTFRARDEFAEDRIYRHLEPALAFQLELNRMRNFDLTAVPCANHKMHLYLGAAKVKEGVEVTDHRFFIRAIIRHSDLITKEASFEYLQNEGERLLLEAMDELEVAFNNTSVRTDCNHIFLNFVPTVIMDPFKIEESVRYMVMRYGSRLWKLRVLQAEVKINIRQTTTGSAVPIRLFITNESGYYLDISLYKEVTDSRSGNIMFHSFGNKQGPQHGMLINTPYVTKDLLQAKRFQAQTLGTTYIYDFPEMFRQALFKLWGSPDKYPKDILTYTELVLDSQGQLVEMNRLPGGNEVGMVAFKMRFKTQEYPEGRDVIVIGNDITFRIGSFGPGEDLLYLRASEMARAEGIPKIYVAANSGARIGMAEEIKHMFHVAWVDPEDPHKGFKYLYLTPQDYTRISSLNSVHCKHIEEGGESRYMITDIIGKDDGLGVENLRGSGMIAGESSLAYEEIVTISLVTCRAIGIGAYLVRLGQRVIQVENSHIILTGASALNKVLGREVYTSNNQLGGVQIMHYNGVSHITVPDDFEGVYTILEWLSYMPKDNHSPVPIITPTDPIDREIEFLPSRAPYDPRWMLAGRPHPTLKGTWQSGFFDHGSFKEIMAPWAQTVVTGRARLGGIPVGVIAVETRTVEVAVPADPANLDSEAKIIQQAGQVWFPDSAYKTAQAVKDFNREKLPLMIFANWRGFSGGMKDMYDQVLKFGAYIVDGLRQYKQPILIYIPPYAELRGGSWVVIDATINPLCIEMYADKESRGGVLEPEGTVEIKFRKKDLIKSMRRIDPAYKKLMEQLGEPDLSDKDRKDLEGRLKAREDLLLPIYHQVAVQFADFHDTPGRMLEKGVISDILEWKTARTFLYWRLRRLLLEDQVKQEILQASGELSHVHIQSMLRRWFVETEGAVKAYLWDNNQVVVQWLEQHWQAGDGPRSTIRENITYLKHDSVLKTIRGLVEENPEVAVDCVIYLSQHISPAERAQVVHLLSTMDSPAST
Experimental: The inhibitory activity of the substances of this invention with regard to acetyl-CoA carboxylase 2 (ACC2) was measured using the ACC2 assay described in the paragraphs below. The basic principle of the assay is the measurement of adenosine diphosphate (ADP), which is formed as a by-product, by means of an HTRF®-based competitive immunoassay (HTRF=Homogeneous Time Resolved Fluorescence).
as §1

Row | SMILES | IC50 [1] | IC50 [2]
1 | Cc1ccc(-c2ccc(Cl)c(C3=C(O)C4(CCOCC4)NC3=O)c2)cc1F [Example 1-39, 3-(4-chloro-3′-fluoro-4′-methylbiphenyl-3-yl)-4-hydroxy-8-oxa-1-azaspiro[4.5]dec-3-en-2-one] | 663 nM | > 20000 nM
2 | Cc1ccc(-c2ccc(F)cc2)c(C)c1C1=C(O)C2(CCCCC2)NC1=O [Example 1-40, 3-(4′-fluoro-2,4-dimethylbiphenyl-3-yl)-4-hydroxy-1-azaspiro[4.5]dec-3-en-2-one] | 1200 nM | 15000 nM
3 | O=C1NC2(CCOCC2)C(O)=C1c1cc(-c2ccc(F)cc2)ccc1Cl [Example 1-41, 3-(4-chloro-4′-fluorobiphenyl-3-yl)-4-hydroxy-8-oxa-1-azaspiro[4.5]dec-3-en-2-one] | 751 nM | > 20000 nM
4 | CO[C@H]1CC[C@]2(CC1)NC(=O)C(c1c(C)cc(C)c(-c3ccc(F)cc3)c1C)=C2O [Example 1-42, (5s,8s)-3-(4′-fluoro-2,4,6-trimethylbiphenyl-3-yl)-4-hydroxy-8-methoxy-1-azaspiro[4.5]dec-3-en-2-one] | > 20000 nM | 669 nM
5 | CO[C@H]1CC[C@]2(CC1)NC(=O)C(c1cc(-c3ccc(F)c(Cl)c3)ccc1C)=C2O [Example 1-43, (5s,8s)-3-(3′-chloro-4′-fluoro-4-methylbiphenyl-3-yl)-4-hydroxy-8-methoxy-1-azaspiro[4.5]dec-3-en-2-one] | 304 nM | 10200 nM
6 | CO[C@H]1CC[C@]2(CC1)NC(=O)C(c1cc(-c3ccc(F)cc3)ccc1Cl)=C2O [Example 1-44, (5s,8s)-3-(4-chloro-4′-fluorobiphenyl-3-yl)-4-hydroxy-8-methoxy-1-azaspiro[4.5]dec-3-en-2-one] | 915 nM | > 20000 nM
7 | CO[C@H]1CC[C@]2(CC1)NC(=O)C(c1c(C)ccc(-c3ccc(F)cc3)c1C)=C2O [Example 1-45, (5s,8s)-3-(4′-fluoro-2,4-dimethylbiphenyl-3-yl)-4-hydroxy-8-methoxy-1-azaspiro[4.5]dec-3-en-2-one] | 776 nM | 3610 nM
8 | COCC1(C)NC(=O)C(c2cc(-c3ccc(Cl)cc3)ccc2C)=C1O (stereo not drawn) [Example 1-46, 3-(4′-chloro-4-methylbiphenyl-3-yl)-4-hydroxy-5-(methoxymethyl)-5-methyl-1,5-dihydro-2H-pyrrol-2-one] | 812 nM | 15800 nM
9 | COCCC1(C)NC(=O)C(c2cc(-c3ccc(Cl)cc3)ccc2C)=C1O (stereo not drawn) [Example 1-47, 3-(4′-chloro-4-methylbiphenyl-3-yl)-4-hydroxy-5-(2-methoxyethyl)-5-methyl-1,5-dihydro-2H-pyrrol-2-one] | 923 nM | > 20000 nM
10 | COC1CCC2(C1)NC(=O)C(c1c(C)ccc(-c3ccc(Cl)cc3)c1C)=C2O (stereo not drawn) [Example 1-48, 3-(4′-chloro-2,4-dimethylbiphenyl-3-yl)-4-hydroxy-7-methoxy-1-azaspiro[4.4]non-3-en-2-one] | 1010 nM | 8600 nM
11 | COCC1CCCC2(C1)NC(=O)C(c1cc(-c3ccc(Cl)cc3)ccc1C)=C2O (stereo not drawn) [Example 1-51, 3-(4′-chloro-4-methylbiphenyl-3-yl)-4-hydroxy-7-(methoxymethyl)-1-azaspiro[4.5]dec-3-en-2-one] | 473 nM | 4910 nM
12 | COCC1CCCC2(C1)NC(=O)C(c1cc(-c3ccc(Cl)cc3)ccc1Cl)=C2O (stereo not drawn) [Example 1-52, 3-(4,4′-dichlorobiphenyl-3-yl)-4-hydroxy-7-(methoxymethyl)-1-azaspiro[4.5]dec-3-en-2-one] | 1270 nM | > 20000 nM
13 | COCC1CCC2(CC1)NC(=O)C(c1c(C)ccc(-c3ccc(Cl)cc3)c1C)=C2O (stereo not drawn) [Example 1-53, 3-(4′-chloro-2,4-dimethylbiphenyl-3-yl)-4-hydroxy-8-(methoxymethyl)-1-azaspiro[4.5]dec-3-en-2-one] | 506 nM | 214 nM
14 | COCC1CCC2(CC1)NC(=O)C(c1cc(-c3ccc(Cl)cc3)ccc1Cl)=C2O (stereo not drawn) [Example 1-54, 3-(4,4′-dichlorobiphenyl-3-yl)-4-hydroxy-8-(methoxymethyl)-1-azaspiro[4.5]dec-3-en-2-one] | 220 nM | 1100 nM
15 | COCCC1CCCC2(C1)NC(=O)C(c1c(C)ccc(-c3ccc(Cl)cc3)c1C)=C2O (stereo not drawn) [Example 1-55, 3-(4′-chloro-2,4-dimethylbiphenyl-3-yl)-4-hydroxy-7-(2-methoxyethyl)-1-azaspiro[4.5]dec-3-en-2-one] | 918 nM | 465 nM
16 | COCC1CCC2(CC1)NC(=O)C(c1cc(-c3ccc(Cl)cc3)ccc1C)=C2O (stereo not drawn) [Example 1-56, 3-(4′-chloro-4-methylbiphenyl-3-yl)-4-hydroxy-8-(methoxymethyl)-1-azaspiro[4.5]dec-3-en-2-one] | 430 nM | 320 nM
17 | COCCC1CCC2(CC1)NC(=O)C(c1c(C)ccc(-c3ccc(Cl)cc3)c1C)=C2O (stereo not drawn) [Example 1-57, 3-(4′-chloro-2,4-dimethylbiphenyl-3-yl)-4-hydroxy-8-(2-methoxyethyl)-1-azaspiro[4.5]dec-3-en-2-one] | 790 nM | 220 nM
18 | O=C1NC2(CCC3(CC2)OCCCO3)C(O)=C1c1cc(-c2ccc(Cl)cc2)ccc1Cl [Example 1-58, 3-(4,4′-dichlorobiphenyl-3-yl)-4-hydroxy-9,13-dioxa-1-azadispiro[4.2.5.2]pentadec-3-en-2-one] | 362 nM | 11500 nM
19 | Cc1ccc(-c2ccc(Cl)cc2)cc1C1=C(O)C2(CCC3(CC2)OCCCO3)NC1=O [Example 1-59, 3-(4′-chloro-4-methylbiphenyl-3-yl)-4-hydroxy-9,13-dioxa-1-azadispiro[4.2.5.2]pentadec-3-en-2-one] | 427 nM | 5200 nM
20 | Cc1ccc(-c2ccc(Cl)cc2)cc1C1=C(O)C2(CCC3(CC2)OCCO3)NC1=O [Example 1-60, 11-(4′-chloro-4-methylbiphenyl-3-yl)-12-hydroxy-1,4-dioxa-9-azadispiro[4.2.4.2]tetradec-11-en-10-one] | 237 nM | 2330 nM
21 | O=C1NC2(CCC3(CC2)OCCO3)C(O)=C1c1cc(-c2ccc(Cl)cc2)ccc1Cl [Example 1-61, 11-(4,4′-dichlorobiphenyl-3-yl)-12-hydroxy-1,4-dioxa-9-azadispiro[4.2.4.2]tetradec-11-en-10-one] | 227 nM | 3910 nM
22 | Cc1ccc(-c2ccc(Cl)cc2)cc1C1=C(O)C2(CCC3(CC2)OCC(C)O3)NC1=O (stereo not drawn) [Example 1-63, 11-(4′-chloro-4-methylbiphenyl-3-yl)-12-hydroxy-2-methyl-1,4-dioxa-9-azadispiro[4.2.4.2]tetradec-11-en-10-one] | 391 nM | 4220 nM
23 | Cc1ccc(-c2ccc(Cl)cc2)cc1C1=C(O)C2(CCC3(CC2)OC(C)C(C)O3)NC1=O (stereo not drawn) [Example 1-64, 11-(4′-chloro-4-methylbiphenyl-3-yl)-12-hydroxy-2,3-dimethyl-1,4-dioxa-9-azadispiro[4.2.4.2]tetradec-11-en-10-one] | 985 nM | 16400 nM
24 | CC1(C)COC2(CCC3(CC2)NC(=O)C(c2cc(-c4ccc(Cl)cc4)ccc2Cl)=C3O)OC1 [Example 1-65, 3-(4,4′-dichlorobiphenyl-3-yl)-4-hydroxy-11,11-dimethyl-9,13-dioxa-1-azadispiro[4.2.5.2]pentadec-3-en-2-one] | 934 nM | 9470 nM
